“Also recorded” adds a separate entry of the source. Where a name gives a salt, the structure may show the parent alone. Read-outs that look alike come from different tables or passages of the source.
Tests used:
[1] = tested on: Klebsiella acrogenes A; assay: Growth inhibition and synergism; assay type: cell-based, Klebsiella aerogenes; settings: 5 μg/ml. of clavulanic acid also present
[2] = tested on: Klebsiella aerogenes E 70; assay: Antibacterial synergism, microtitre method (MIC); assay type: cell-based
[3] = tested on: Klebsiella aerogenes 62; assay: Antibacterial synergism, microtitre method (MIC); assay type: cell-based
[4] = tested on: Klebsiella aerogenes A; assay: Antibacterial synergism, microtitre method (MIC); assay type: cell-based
[5] = tested on: Staphylococcus; assay: Antibacterial synergism, microtitre method (MIC); assay type: cell-based
[6] = tested on: Enterobacter cleacea; assay: Antibacterial spectrum, microtitre method (MIC); assay type: cell-based; settings: read-out: Minimum Inhibitory Concentration
[7] = tested on: Enterohacter cloacae; assay: Antibacterial synergism, microtitre method (MIC); assay type: cell-based; settings: read-out: Minimum Inhibitory Concentration, agent alone
[8] = tested on: Staphylococcus aureus (Russell); assay: Antibacterial synergism, microtitre method (MIC); assay type: cell-based; settings: Table 6
[9] = Hydrolysis of ester to clavulanic acid in pH 7 buffer; assay type: physicochemical; settings: buffered to pH 7 (0.05M phosphate, 37° C., 1 mg/ml, 2 hours in Example 29)
Experimental: The reaction was followed by paper chromatography (bioautographic system). Using the butanol/ethanol/water system to follow the reaction over a period of 2 hours the zone of the methyl ester at Rf 0.79 decreased in size as the zone of clavulanic acid at Rf 0.12 increased.

[10] = Stability in human blood; assay type: in vitro ADME
[11] = target: T1, β-lactamase produced by Escherichia coli JT4 (Escherichia coli, UniProt P62593); assay: β-lactamase inhibition assay (Description 1); assay type: biochemical
T1 construct: the cell debris was removed by centrifugation and aliquots of the supernatant stored deep frozen; endogenous in cells; host or cells: Escherichia coli JT4 (R factor), ultrasonic extract
T1 sequence (P62593 24-286 limits assumed): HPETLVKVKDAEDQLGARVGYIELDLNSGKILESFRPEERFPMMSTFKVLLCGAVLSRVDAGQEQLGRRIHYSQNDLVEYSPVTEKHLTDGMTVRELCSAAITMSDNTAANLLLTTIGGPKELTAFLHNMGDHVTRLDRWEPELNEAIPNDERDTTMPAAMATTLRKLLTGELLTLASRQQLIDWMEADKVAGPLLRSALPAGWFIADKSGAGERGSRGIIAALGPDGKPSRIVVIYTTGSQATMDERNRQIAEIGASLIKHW
Experimental: Solutions containing clavulanic acid (culture filtrate, samples from isolation procedure and the like) are incubated for 15 minutes with a β-lactamase preparation in 0.05M phosphate buffer at pH 7 and 37° C. During this time, enzyme inhibition or inactivation occurs. Substrate (benzylpenicillin) is then added and incubation continued for 30 minutes at 37° C. The amount of enzymic degradation of the substrate to penicilloic acid is determined by the hydroxylamine assay for penicillin. The amount of β-lactamase used is such as to give 75% hydrolysis of the benzylpenicillin in 30 minutes at 37° C.
The extent of hydrolysis is a reflection of the amount of enzyme remaining uninhibited.
The β-lactamase produced by Escherichia coli JT4 is used as an enzyme.
The culture maintained on nutrient agar slopes, is inoculated into 400 ml. of sterile Tryptone medium contained in a 2 liter conical flask. This medium has the following composition Tryptone (Oxoid) 32 g/l, yeast extract (Oxoid) 20 g/l, Nacl 5 g/l and Cacl2 6H2 O 2.2 g/l. […]
Suitable dilutions of the inhibitor preparation and β-lactamase solution are mixed and incubated at 37° C. for 15 minutes (Test). […] The absorption of the final solutions is measured in an E.E.L. Colorimeter or a Spectrophotometer at 490 nm against the reagent blank.
The percentage inhibition of the β-lactamase is calculated as follows- - […]

[12] = tested on: Staphylococcus aureus (Russell); assay: Synergism of clavulanic acid methyl ester (M.I.C.); assay type: cell-based; settings: in the presence of 1.0 μg/ml. clavulanic acid methyl ester
[13] = +5 μg/ml benzyl ester of clavulanic acid
[14] = +5 μg/ml methyl ester of clavulanic acid

CC1(C)S[C@@H]2[C@H](NC(=O)C(C(=O)O)c3ccccc3)C(=O)N2[C@H]1C(=O)O (some centres unmarked) [carbenicillin]
concentration of penicillin inhibiting growth [1]: less than 12.5 μg/ml

CC1(C)S[C@@H]2[C@H](NC(=O)Cc3ccccc3)C(=O)N2[C@H]1C(=O)O [benzylpenicillin]
concentration of penicillin inhibiting growth [1]: less than 12.5 μg/ml

CC1(C)S[C@@H]2[C@H](NC(=O)[C@H](N)c3ccccc3)C(=O)N2[C@H]1C(=O)O [ampicillin]
MIC of Ampicillin + 5 μg/ml of Benzyl Ester of clavulanic acid [2, 13]: 3.9 µg/mL | MIC of Ampicillin + 5 μg/ml of Methyl Ester of clavulanic acid [2, 14]: 3.9 µg/mL | MIC of Ampicillin + 5 μg/ml of Benzyl Ester of clavulanic acid [3, 13]: 3.9 µg/mL | MIC of Ampicillin + 5 μg/ml of Methyl Ester of clavulanic acid [3, 14]: 3.9 µg/mL | MIC of Ampicillin + 5 μg/ml of Benzyl Ester of clavulanic acid [4, 13]: 1.9 µg/mL | MIC of Ampicillin + 5 μg/ml of Methyl Ester of clavulanic acid [4, 14]: 1.9 µg/mL | MIC ([5]; alone, inoculum 0.5×10^-2, read-out: Minimum Inhibitory Concentration, agent alone): 250 µg/mL

O=C(O)[C@H]1/C(=C/CO)O[C@@H]2CC(=O)N21 [clavulanic acid sodium salt, 3-(β-hydroxyethylidine)-7-oxo-4-oxa-1-azabicyclo [3,2,0]heptane-2-carboxylic acid sodium salt]
MIC [6]: 62 µg/mL | MIC [7]: 62 µg/mL | Minimum Inhibitory Concentration, agent alone [8]: 15 µg/mL | MIC ([5]; read-out: Minimum Inhibitory Concentration, agent alone): 62 µg/mL

COC(=O)[C@H]1/C(=C/CO)O[C@@H]2CC(=O)N21 [clavulanic acid methyl ester]
hydrolysis of ester to clavulanic acid [9]: slowly hydrolyse to clavulanic acid; also recorded: Slow conversion of the ester to clavulanic acid

O=C(O)[C@H]1/C(=C/CO)O[C@@H]2CC(=O)N21 [clavulanic acid, Z-(2R,5R)-3-(β-hydroxyethylidene)-7-oxo-4-oxa-1-azabicyclo[3,2,0]heptane-2-carboxylic acid]
stability in human blood [10]: high stability | mode of β-lactamase inhibition [11]: progressively and irreversibly inhibits

O=C(Cc1cccs1)N[C@@H]1C(=O)N2C(C(=O)[O-])=C(C[n+]3ccccc3)CS[C@H]12 [cephaloridine]
M.I.C. of antibiotic in presence of synergist [12]: < 0.03 µg/mL

Reference: US6031093A, “Solid salts of clavulanic acid” (SmithKline Beecham p.l.c., priority 1995, dated 2000)
